Test results from patent US9056865B2, “Pyridine-2-derivatives as smoothened receptor modulators” (Pfizer Inc., priority 2010, dated 2015).
Like-named read-outs stand apart in the source and are kept apart here.

Experiments:
[1] = rat plasma protein binding; assay type: in vitro ADME; conditions: previously determined
[2] = Assessment of brain penetration in rats; assay type: in vivo; conditions: rat
Description: Assessment of Brain Penetration of A-116 in Rats
An in vivo study in rats was conducted to assess the extent of brain penetration of A-116. In this study, approximately 10-week-old (250 grams body weight) Wistar rats were dosed once with 10 mg/kg of A-116 subcutaneously. Three rats per group were euthanized 1 hour, 4 hours, and 7 hours post dose. The plasma, the whole brain, and the cerebral spinal fluid (CSF) were collected to determine the tissue concentrations using HPLC-MS/MS. At 1 hour, 4 hours and 7 hours, the respective brain concentrations were 201±52 ng/g, 224±231 ng/g, and 28 ng/g of tissue. The total plasma concentrations were 2240±296 ng/mL, 2220±1780 ng/mL, and 287±75 ng/mL at 1 hour, 4 hours and 7 hours, respectively. To calculate the unbound plasma concentrations, the total plasma concentrations were multiplied by 0.067, a previously determined unbound fraction of rat plasma protein binding. The resulting unbound plasma concentrations were 150±20 ng/mL (1 hour), 149±119 ng/mL (4 hours), and 19.2±5.0 ng/mL (7 hours). The respective CSF concentrations were 64.4±12.0 ng/mL, 72.1±71.9 ng/mL, and 3.9±2.3 ng/mL at 1 hour, 4 hours, and 7 hours post dose. […] To determine the extent of brain penetration, a ratio of the CSF concentration to the unbound plasma concentration was calculated. At 1 hour, 4 hours, and 7 hours, the ratios were 0.43±0.03, 0.44±0.1, and 0.19±0.06, respectively.

## Cc1cnc(-c2cc(N3CCN(C(=O)CCS(C)(=O)=O)CC3)ncc2Cl)c(C)c1 [Example A-116, 5′-chloro-3,5-dimethyl-2′-{4-[3-(methylsulfonyl)propanoyl]piperazin-1-yl}-2,4′-bipyridine]
[1]
  fraction unbound: 0.067
[2]; Wistar, CSF / unbound plasma, subcutaneous, 10 mg/kg, 1 hour, read-out: ratio of the CSF concentration to the unbound plasma concentration
  Kp at 1 h: 0.43 ± 0.03
[2]; Wistar, CSF / unbound plasma, subcutaneous, 10 mg/kg, 4 hours, read-out: ratio of the CSF concentration to the unbound plasma concentration
  Kp at 4 h: 0.44 ± 0.1
[2]; Wistar, CSF / unbound plasma, subcutaneous, 10 mg/kg, 7 hours, read-out: ratio of the CSF concentration to the unbound plasma concentration
  Kp at 7 h: 0.19 ± 0.06
[2]; Wistar, CSF / unbound plasma, subcutaneous, 10 mg/kg, rats, within 4 hours post dose, read-out: unbound compound in the plasma able to cross the blood brain barrier
  Kp: ~0.4
[2]; Wistar, subcutaneous, 10 mg/kg, total plasma concentration multiplied by 0.067, 1 hour, read-out: unbound plasma concentration
  concentration at 1 h: 150 ± 20 ng/mL
[2]; Wistar, subcutaneous, 10 mg/kg, total plasma concentration multiplied by 0.067, 4 hours, read-out: unbound plasma concentration
  concentration at 4 h: 149 ± 119 ng/mL
[2]; Wistar, subcutaneous, 10 mg/kg, total plasma concentration multiplied by 0.067, 7 hours, read-out: unbound plasma concentration
  concentration at 7 h: 19.2 ± 5 ng/mL
[2]; CSF, sc, Wistar rats, 10 mg/kg subcutaneously, 1 hour, read-out: CSF concentration
  concentration at 1 h: 64.4 ± 12 ng/mL
[2]; CSF, sc, Wistar rats, 10 mg/kg subcutaneously, 4 hours, read-out: CSF concentration
  concentration at 4 h: 72.1 ± 71.9 ng/mL
[2]; CSF, sc, Wistar rats, 10 mg/kg subcutaneously, 7 hours, read-out: CSF concentration
  concentration at 7 h: 3.9 ± 2.3 ng/mL
[2]; brain, sc, Wistar rats, 10 mg/kg subcutaneously, 1 hour, read-out: brain concentration
  concentration at 1 h: 201 ± 52 ng/g
[2]; brain, sc, Wistar rats, 10 mg/kg subcutaneously, 4 hours, read-out: brain concentration
  concentration at 4 h: 224 ± 231 ng/g
[2]; brain, sc, Wistar rats, 10 mg/kg subcutaneously, 7 hours, read-out: brain concentration
  concentration at 7 h: 28 ng/g
[2]; plasma, sc, Wistar rats, 10 mg/kg subcutaneously, 1 hour, read-out: total plasma concentration
  concentration at 1 h: 2240 ± 296 ng/mL
[2]; plasma, sc, Wistar rats, 10 mg/kg subcutaneously, 4 hours, read-out: total plasma concentration
  concentration at 4 h: 2220 ± 1780 ng/mL
[2]; plasma, sc, Wistar rats, 10 mg/kg subcutaneously, 7 hours, read-out: total plasma concentration
  concentration at 7 h: 287 ± 75 ng/mL
